Source: patent US7208505B2, “β3 adrenergic agonists” (Eli Lilly and Company, priority 2001, dated 2007)

Each compound was assayed against T1, human β3 adrenergic receptor (Homo sapiens, UniProt P13945) (assay: whole cell receptor coupled c-AMP assay (Emax relative to isoproterenol)). Settings: % intrinsic activity: maximal response divided by isoproterenol maximal response times 100; transfected CHO cells; average of at least 3 runs.
T1 construct: expressed in transfected cells
Format: cell-based
Source text: The genes encoding the human β1-adrenergic receptor (Frielle et al., Proc. Natl. Acad. Sci., 84:7920–7924, 1987), the human β2-adrenergic receptor (Kobika et al., Proc. Natl. Acad. Sci., 84:46–50, 1987, Emorine et al., Proc. Natl. Acad. Sci., 84:6995–6999, 1987) and the human β3 adrenergic receptor (Granneman et al., Molecular Pharmacology, 44(2):264–70, 1993) are individually subcloned into a phd expression vector (Grinnell et al., Bio/Technology, 5:1189–1192, 1987) and transfected into the DXB-11 Chinese hamster ovary (CHO) cell line by calcium phosphate precipitation methodology. The stably transfected cells are grown to 95% confluency in 95% Dulbecco's modified Eagles Medium (DMEM), 5% fetal bovine serum and 0.01% proline. Media is removed and the cells are washed with phosphate buffered (pH 7.4) saline (without magnesium and calcium). Cells are then lifted using an enzyme free cell dissociation solution (Specialty Media, Lavallette, N.J.) and pelleted by centrifugation.
Cells from each of the above cell lines are resuspended and added (20,000/well) to a 96-well plate. Cells are incubated at 37° C. with representative compounds of the invention for 20 minutes in buffer (Hank's balanced salt solution, 10 mM HEPES, 0.1% BSA, 1 mM L-ascorbic acid, 0.2% dimethyl sulfoxide, 1 mM 3-isobutyl-1-methylxanthine, pH 7.4). After halting the incubation with quench buffer (50 mM Na Acetate, 0.25% Triton X-100, pH 5.8), the c-AMP level is quantified by scintillation proximity assay (SPA) using a modification of the commercially available c-AMP kit (Amersham, Arlington Heights, Ill.) with rabbit anti-cAMP antibody (ICN Biomedicals, Aurora, Ohio) for the kit.
Sigmoidal dose response curves, from the whole cell receptor coupled c-AMP assay are fit to a four parameter logistic equation using non linear regression: y=(a−d)/(1+(Dose/c)^b)+d where a and d are responses at zero and maximal dose, b is the slope factor and c is the EC50 as previously described (DeLean et al., Am. J. Physiol., 235, E97-E102, 1978). EC50 is assessed as the concentration producing 50% of the maximum response to each agonist.
Isoproterenol is accepted in the art as a non-selective β3 agonist and is widely used as a comparator in evaluating the activity of compounds. See Trends in Pharm. Sci., 15:3, 1994. The % intrinsic activity (Emax) of representative compounds of the invention is assessed relative to isoproterenol by the compound's maximal response divided by the isoproterenol maximal response times 100.

T1 sequence (P13945 whole entry): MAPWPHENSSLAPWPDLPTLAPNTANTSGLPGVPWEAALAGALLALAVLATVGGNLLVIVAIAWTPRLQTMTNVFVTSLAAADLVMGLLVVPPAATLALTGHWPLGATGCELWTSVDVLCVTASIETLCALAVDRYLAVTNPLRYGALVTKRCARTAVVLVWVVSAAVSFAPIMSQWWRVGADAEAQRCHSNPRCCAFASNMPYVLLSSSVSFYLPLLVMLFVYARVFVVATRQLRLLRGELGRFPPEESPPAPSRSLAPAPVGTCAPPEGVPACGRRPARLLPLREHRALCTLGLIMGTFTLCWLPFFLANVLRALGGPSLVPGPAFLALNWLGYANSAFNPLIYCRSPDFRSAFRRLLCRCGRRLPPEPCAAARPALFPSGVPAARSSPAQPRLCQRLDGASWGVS

Emax (%) ± SEM	SMILES
39.1 ± 7.1%	COC(=O)c1cccc2[nH]cc(CC(C)(C)NC[C@H](O)COc3ccccc3-c3cccs3)c12 [Example 69]
32.4 ± 8.1%	COC(=O)c1ccc2c(ccn2C[C@@H](C)NC[C@H](O)COc2ccccc2-c2cccs2)c1 [Example 154]
47.3 ± 2.3%	CC(C)(Cc1c[nH]c2c(C=Cn3cncn3)cccc12)NCC(O)COc1ccccc1-c1cccs1 (stereo not shown) [Example 146]
73.3 ± 4.6%	CCOC(=O)c1cccc(-c2cccc3c(CC(C)(C)NC[C@H](O)COc4ccccc4-c4cccs4)c[nH]c23)c1 [Example 40]
58.6 ± 0.9%	CC(C)(Cc1c[nH]c2cc(C#N)ccc12)NC[C@H](O)COc1ccccc1-c1ccon1 [Example 78]
76.5 ± 3.0%	CC(C)(Cc1c[nH]c2c(Oc3ncccc3C#N)cccc12)NC[C@H](O)COc1ccccc1-c1ccon1 [Example 113]
79.0 ± 3.5%	CC(C)(Cc1c[nH]c2c(C(=O)O)cccc12)NC[C@H](O)COc1ccccc1-c1ccc(S(N)(=O)=O)s1 [Example 54]
44.2 ± 1.2%	CC(=O)c1ccc(-c2cccc3c(CC(C)(C)NC[C@H](O)COc4ccccc4-c4ccon4)c[nH]c23)cc1 [Example 49]
38.5 ± 2.3%	COC(=O)c1ccc(-c2cccc3c(CC(C)(C)NC[C@H](O)COc4ccccc4-c4ccon4)c[nH]c23)cc1 [Example 44]
76.5 ± 12.6%	CC(C)(Cc1c[nH]c2c(OCC#N)cccc12)NC[C@H](O)COc1ccccc1-c1cccs1 [Example 101]
58.1 ± 1.6%	CC(C)(Cc1c[nH]c2c(Oc3ccc(C#N)cn3)cccc12)NC[C@H](O)COc1ccccc1-c1ccon1 [Example 116]
40.8 ± 1.3%	CC(C)(Cc1c[nH]c2ccc(F)cc12)NC[C@H](O)COc1ccccc1-c1ccon1 [Example 167]
71.7 ± 3.0%	CC(C)(Cc1c[nH]c2c(-c3cccc(C(F)(F)F)c3)cccc12)NC[C@H](O)COc1ccccc1-n1cccc1 [Example 39]
94.3 ± 4.6%	CC(C)(Cc1c[nH]c2c(OCC(=O)O)cccc12)NC[C@H](O)COc1ccccc1-c1cccs1 [Example 224]
37.3 ± 2.7%	COC(=O)c1ccc2[nH]cc(CC(C)(C)NC[C@H](O)COc3ccccc3-c3cccs3)c2c1 [Example 70]
32.0 ± 5.5%	CC(C)(NC[C@H](O)COc1ccccc1-c1ccon1)C(=O)N1CCc2ccccc21 [Example 193]
39.6 ± 0.7%	COC(=O)c1ccc(-c2cccc3c(CC(C)(C)NC[C@H](O)COc4ccccc4-c4cccs4)c[nH]c23)s1 [Example 181]

The remaining lines, values behind:

SMILES	Emax (%) ± SEM
CC(C)(Cc1c[nH]c2ccccc12)NC[C@H](O)COc1ccccc1-c1ncco1 [Example 33]	75.9 ± 1.9%
CC(C)(Cc1c[nH]c2c(Oc3cc(C#N)ccn3)cccc12)NC[C@H](O)COc1ccccc1-c1cccs1 [Example 114]	72.1 ± 5.0%
CC(=O)c1cccc(-c2cccc3c(CC(C)(C)NC[C@H](O)COc4ccccc4-c4ccon4)c[nH]c23)c1 [Example 47]	69.2 ± 2.0%
CC(C)(Cc1c[nH]c2c(OCC#N)cccc12)NC[C@H](O)COc1ccccc1-c1cnco1.O=C(O)C(F)(F)F [Example 7]	58.4 ± 1.7%
CC(C)(Cc1c[nH]c2c(C(N)=O)cccc12)NC[C@H](O)COc1ccccc1-c1cccs1 [Example 174]	57.6 ± 0.6%
Cc1ccc(-c2ccccc2OC[C@@H](O)CNC(C)(C)Cc2c[nH]c3c(OCC#N)cccc23)s1.O=C(O)C(F)(F)F [Example 14]	75.2 ± 3.0%
CC(C)(Cc1c[nH]c2c(-c3cccs3)cccc12)NC[C@H](O)COc1ccccc1-c1cccs1 [Example 108]	71.5 ± 7.9%
CC(C)(Cc1c[nH]c2c(C(=O)O)cccc12)NC[C@H](O)COc1ccccc1-c1ccsc1 [Example 61]	56.6 ± 2.7%
CC(C)(Cc1c[nH]c2cc(C=CC#N)ccc12)NC[C@H](O)COc1ccccc1-c1cccs1 [Example 190]	69.3 ± 1.3%
CC(C)(Cc1c[nH]c2cc(OCC#N)ccc12)NC[C@H](O)COc1ccccc1-c1cccs1 [Example 168]	62.1 ± 3.3%
CC(C)(Cc1c[nH]c2c(NS(C)(=O)=O)cccc12)NC[C@H](O)COc1ccccc1-c1ccon1 [Example 28]	58.5 ± 0.5%
CC(C)(Cc1c[nH]c2c(C=Cc3ccc(S(N)(=O)=O)cc3)cccc12)NC[C@H](O)COc1ccccc1-c1cccs1 [Example 189]	64.5 ± 1.7%
CC(C)(Cc1c[nH]c2c(OCC#N)cccc12)NC[C@H](O)COc1ccccc1-c1cc(C#N)cs1.O=C(O)C(F)(F)F [Example 20]	59.1 ± 3.1%
CC(C)(Cc1c[nH]c2c(C=Cc3cnccn3)cccc12)NC[C@H](O)COc1ccccc1-c1cccs1 [Example 188]	70.5 ± 3.8%
C[C@H](Cn1ccc2ccc(OCC#N)cc21)NC[C@H](O)COc1ccccc1-c1cccs1 [Example 67]	28.6 ± 3.4%

Same assay, conditions: CHO, % intrinsic activity relative to isoproterenol; transfected CHO cells

Emax	SMILES
85%	CC(C)(Cc1c[nH]c2c(OCC#N)cccc12)NC[C@H](O)COc1ccccc1-c1ccc(C#N)s1 [Example 202]
73.8%	CC(C)(Cc1c[nH]c2c(OCC(=O)O)cccc12)NC[C@H](O)COc1ccccc1-n1cccc1 [Example 203]
8.9%	C[C@@H](CN1CCc2cc(F)c(Cl)cc21)NC[C@H](O)COc1ccccc1-c1cccs1 [Example 195]

Same assay, conditions: CHO, % intrinsic activity: maximal response divided by isoproterenol maximal response times 100; transfected CHO cells; average of at least 3 runs

Emax	SMILES
77 ± 2.1%	CC(C)(Cc1c[nH]c2c(Oc3ccc(C(=O)O)cn3)cccc12)NC[C@H](O)COc1ccccc1-c1ccon1 [Example 244]
70.1 ± 0.6%	CC(C)(Cc1c[nH]c2c(C(=O)O)cccc12)NC[C@H](O)COc1ccccc1-c1cccs1 [Example 241]
81.6 ± 4%	CC(C)(Cc1c[nH]c2c(CCc3cnccn3)cccc12)NC[C@H](O)COc1ccccc1-c1cccs1 [Example 253]
79.5 ± 0.6%	CC(C)(Cc1c[nH]c2c(CCC(=O)O)cccc12)NC[C@H](O)COc1ccccc1-c1cccs1 [Example 228]
52.4 ± 6%	CC(C)(Cc1c[nH]c2c(OCC(=O)O)cccc12)NC[C@H](O)COc1ccccc1-c1ccno1 [Example 233]
85.9 ± 9.4%	CC(C)(CC1=CCc2c(Oc3ccc(C(N)=O)cn3)cccc21)NC[C@H](O)COc1ccccc1-c1cccs1 [Example 219]
69.6 ± 3.5%	CC(C)(Cc1c[nH]c2ccc(C(=O)O)cc12)NC[C@H](O)COc1ccccc1-c1cccs1 [Example 239]
88.4 ± 3.9%	CC(C)(Cc1c[nH]c2cc(OCC(=O)O)ccc12)NC[C@H](O)COc1ccccc1-c1cccs1 [Example 236]
79.2 ± 3.4%	CC(C)(Cc1c[nH]c2c(-c3ccc(C(=O)O)cc3)cccc12)NC[C@H](O)COc1ccccc1-c1cccs1 [Example 246]

Continued, compound first:

SMILES	Emax
CC(C)(Cc1c[nH]c2cc(CCc3nnn[nH]3)ccc12)NC[C@H](O)COc1ccccc1-c1cccs1 [Example 255]	83.9 ± 3.2%
CC(C)(Cc1c[nH]c2ccccc12)NC[C@H](O)COc1ccccc1-c1ccc(C(=O)O)s1 [Example 221]	74.6 ± 3.6%
CC(C)(Cc1c[nH]c2c(CCc3ccc(S(N)(=O)=O)cc3)cccc12)NC[C@H](O)COc1ccccc1-c1cccs1 [Example 254]	80.9 ± 4.9%
CC(C)(Cc1c[nH]c2c(CCn3cncn3)cccc12)NC[C@H](O)COc1ccccc1-c1cccs1 [Example 222]	81.2 ± 0.9%
CC(C)(Cc1c[nH]c2c(CCc3ccc(C(N)=O)cc3)cccc12)NC[C@H](O)COc1ccccc1-c1cccs1 [Example 220]	81.2 ± 0.6%
